Publication PMC6272715, “Discovery of Novel Small Molecule Anti-HCV Agents via the CypA Inhibitory Mechanism Using O-Acylation-Directed Lead Optimization” (Molecules, 2015)

Columns and labels:
HCV H77-1a replicon = assay: HCV H77-1a subgenomic replicon assay; type: cell-based; conditions: Hepatitis C virus; Table 4; read-out: Anti-HCV Activity EC50 ± SD Replicon Assay H77-1a
CypA = CypA (Homo sapiens, UniProt P62937); assay: CypA enzyme inhibition assay (chymotrypsin-coupled PPIase assay); type: biochemical; conditions: mean ± SD of five independent experiments
Chain of CypA (P62937 whole entry): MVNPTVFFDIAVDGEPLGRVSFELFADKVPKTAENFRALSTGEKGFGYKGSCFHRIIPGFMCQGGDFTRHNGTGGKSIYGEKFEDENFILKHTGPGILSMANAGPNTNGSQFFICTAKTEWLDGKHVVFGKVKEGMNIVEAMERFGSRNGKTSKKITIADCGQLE
Description: The PPIase activity of CypA was conducted in a coupled assay with chymotrypsin using the synthetic tetrapeptide N-succinyl-Ala-Ala-Pro-Phe-p-nitroanilide (Sigma, Shanghai, China) as described in [34] with small modifications. The assay buffer (20 mM Tris-HCl, 50 mM NaCl, pH 7.8) and CypA were precooled at 4 °C and mixed with 0.4 mg∙mL^−1 chymotrypsin (20 mg∙mL^−1 in 1 mM HCl). The reaction was initiated by adding peptide substrate (2 mg∙mL^−1 in 500 mM LiCl in tetrahydrofuran (THF)). […] Absorbance readings were collected every 0.1 s and the temperature was controlled at 4 °C during the assay. The progress curves were analyzed by nonlinear least-squares fit. The inhibition assays of compounds were performed in the same manner as above-mentioned. […] of test compounds in DMSO, at various concentrations, was added to the CypA solution in the assay buffer. After being preincubated for 1 h at 4 °C, the assay was started by the addition of chymotrypsin and the substrate. To calculate the half-maximal inhibitory concentration (IC50), a percent of the remaining PPIase activity was plotted against the common logarithm of the compound concentration, and the data were fitted using the sigmoidal fitting model of Origin 7.0 software.

in vivo = conditions: male, SD, rat, iv, i.v. 2 mg 25/kg; for AUC(0-inf): AUC0-∞
[1] = SD rats, Mean ± SD (Rat 1 and 3)

CCCCCCCC(=O)Oc1cccc(O)c1C(=O)NC(=O)NC1c2ccccc2-c2ccccc21 [Compound 25, 1-(2-Hydroxy-6-n-Octanoyloxybenzoyl)-3-(9H-fluoren-9-yl)-urea]
EC50 (HCV H77-1a replicon): 850 ± 210 nM | IC50 (CypA): > 5000 nM | AUC(0-inf) (in vivo; SD rat, Rat 1): 5.66 ng·h/mL | AUC(0-inf) (in vivo; SD rat, Rat 3): 5.3 ng·h/mL | AUC(0-inf) (in vivo; [1]): 5.48 ± 0.25 ng·h/mL | Cmax (in vivo; SD rat, Rat 1): 13.4 ng/mL | Cmax (in vivo; SD rat, Rat 3): 27.5 ng/mL | Cmax (in vivo; [1]): 20.5 ± 9.99 ng/mL | MRT (in vivo; SD rat, Rat 1): 2.42 h | MRT (in vivo; SD rat, Rat 3): 0.21 h | MRT (in vivo; [1]): 1.3 ± 1.6 h | half-life (in vivo; t1/2, SD rat, Rat 1): 5.4 h | half-life (in vivo; t1/2, SD rat, Rat 3): 0.12 h | half-life (in vivo; t1/2, SD rats, Mean ± SD (Rat 1 and 3)): 2.76 ± 3.73 h
